The source made the active and inactive calls. No rule for the calls is given here.
Test system: CCRIS mutagenicity, Ames/micronucleus/aberration tests
Assay: CCRIS mutagenicity studies
[1] = Test System: AMES SALMONELLA TYPHIMURIUM, Strain/Indicator: TA100, Metabolic Activation: NONE, Method: STANDARD PLATE
[2] = Test System: MOUSE LYMPHOMA, Strain/Indicator: L5178Y (TK+/TK-), Metabolic Activation: NONE, Method: SUSPENSION/PLATE
[3] = Test System: MOUSE LYMPHOMA, Strain/Indicator: L5178Y (TK+/TK-), Metabolic Activation: RAT, LIVER, S-9, AROCLOR 1254, Method: SUSPENSION/PLATE

For `NC(=O)NCC(=O)O`, the mutagenic call (Test System: AMES SALMONELLA TYPHIMURIUM, Strain/Indicator: TA97, Metabolic Activation: NONE, Method: STANDARD PLATE) was “inactive; negative”, the mutagenic call (Test System: AMES SALMONELLA TYPHIMURIUM, Strain/Indicator: TA97, Metabolic Activation: RAT, LIVER, S-9, AROCLOR 1254, Method: STANDARD PLATE) was “inactive; negative” and the mutagenic call (Test System: AMES SALMONELLA TYPHIMURIUM, Strain/Indicator: TA98, Metabolic Activation: NONE, Method: STANDARD PLATE) was “inactive; negative”. The mutagenic call (Test System: AMES SALMONELLA TYPHIMURIUM, Strain/Indicator: TA98, Metabolic Activation: RAT, LIVER, S-9, AROCLOR 1254, Method: STANDARD PLATE) was “inactive; negative”, the mutagenic call [1] was “inactive; negative” and the mutagenic call (Test System: AMES SALMONELLA TYPHIMURIUM, Strain/Indicator: TA100, Metabolic Activation: RAT, LIVER, S-9, AROCLOR 1254, Method: STANDARD PLATE) was “inactive; negative”. The mutagenic call (Test System: AMES SALMONELLA TYPHIMURIUM, Strain/Indicator: TA102, Metabolic Activation: NONE, Method: STANDARD PLATE) was “inactive; negative” and the mutagenic call (Test System: AMES SALMONELLA TYPHIMURIUM, Strain/Indicator: TA102, Metabolic Activation: RAT, LIVER, S-9, AROCLOR 1254, Method: STANDARD PLATE) was “inactive; negative”.
In the case of `O=P(O)(O)OC1C(OP(=O)(O)O)C(OP(=O)(O)O)C(OP(=O)(O)O)C(OP(=O)(O)O)C1OP(=O)(O)O` (stereo unspecified), the mutagenic call [2] is reported as “inactive; negative. reevaluation of results: negative” and the mutagenic call [3] is reported as “inactive; negative. reevaluation of results: negative”.
`C/C([O-])=C(/N=Nc1cc(S(N)(=O)=O)ccc1[O-])C(=O)Nc1ccccc1.C/C([O-])=C(\N=Nc1cc(S(N)(=O)=O)ccc1[O-])C(=O)Nc1ccccc1.[Co+2]` was tested, and the mutagenic call [2] was “inactive; negative. reevaluation of results: negative” and the mutagenic call [3] was “inactive; negative. reevaluation of results: negative”.
In the case of `CNC(=O)NC`, the mutagenic call (Test System: AMES SALMONELLA TYPHIMURIUM, Strain/Indicator: TA98, Metabolic Activation: NONE, Method: PREINCUBATION) is reported as “inactive; negative”, the mutagenic call (Test System: AMES SALMONELLA TYPHIMURIUM, Strain/Indicator: TA98, Metabolic Activation: RAT, LIVER, S-9, AROCLOR 1254 (5, 15 OR 30%), Method: PREINCUBATION) is reported as “inactive; negative” and the mutagenic call (Test System: AMES SALMONELLA TYPHIMURIUM, Strain/Indicator: TA100, Metabolic Activation: NONE, Method: PREINCUBATION) is reported as “inactive; negative”. For the same compound, the mutagenic call (Test System: AMES SALMONELLA TYPHIMURIUM, Strain/Indicator: TA100, Metabolic Activation: RAT, LIVER, S-9, AROCLOR 1254 (5, 15 OR 30%), Method: PREINCUBATION) was “inactive; negative”, the mutagenic call (Test System: AMES SALMONELLA TYPHIMURIUM, Strain/Indicator: TA104, Metabolic Activation: NONE, Method: PREINCUBATION) was “inactive; negative” and the mutagenic call (Test System: AMES SALMONELLA TYPHIMURIUM, Strain/Indicator: TA104, Metabolic Activation: RAT, LIVER, S-9, AROCLOR 1254 (5, 15 OR 30%), Method: PREINCUBATION) was “inactive; negative”. For the same compound, the mutagenic call [2] was “inactive; negative” and the mutagenic call [3] was “inactive; negative”.
In the case of `c1cnc2c(c1)[C@@H]1O[C@H]1C1OC21` (stereo partly specified), the mutagenic call [1] is reported as “inactive; negative” and the mutagenic call (Test System: AMES SALMONELLA TYPHIMURIUM, Strain/Indicator: TA100, Metabolic Activation: RAT, LIVER, S-9, AROCLOR 1254 (10% OR 20%), Method: STANDARD PLATE) is reported as “inactive; negative”.
`C/C=C(\Cl)C1=CC(=O)[C@]23C[C@H]2C(C)(C)O[C@]3(O)C1=O` was tested, and the mutagenic call (Test System: AMES SALMONELLA TYPHIMURIUM, Strain/Indicator: TA97, Metabolic Activation: NONE) was “inactive; negative”, the mutagenic call (Test System: AMES SALMONELLA TYPHIMURIUM, Strain/Indicator: TA98, Metabolic Activation: NONE) was “inactive; negative” and the mutagenic call (Test System: AMES SALMONELLA TYPHIMURIUM, Strain/Indicator: TA100, Metabolic Activation: NONE) was “inactive; negative”. For the same compound, the mutagenic call (Test System: AMES SALMONELLA TYPHIMURIUM, Strain/Indicator: TA102, Metabolic Activation: NONE) was “active; positive”.

From PubChem BioAssay AID1259407 (Chemical Carcinogenesis Research Information System (CCRIS), 2018)
